The test system of data set [1] is Vero (African green monkey kidney) cells. Briefly: in vitro. The class given is cell-based. On the procedure:
(§1) The compounds were evaluated for their potential toxic effects on uninfected PHA-stimulated human PBM cells, in CEM (T-lymphoblastoid cell line obtained from American Type Culture Collection, Rockville, Md.) and Vero (African green monkey kidney) cells. PBM cells were obtained from whole blood of healthy seronegative donors (HIV-1 and hepatitis B virus) by single-step Ficoll-Hypaque discontinous gradient centrifugation. Log phase Vero, CEM and PHA-stimulated human PBM cells were seeded at a density of 5×10^3, 2.5×10^3 and 5×10^4 cells/well respectively. All of the cells were plated in 96-well cell culture plates containing ten-fold serial dilutions of the test drug. The cultures were incubated for 3, 4 and 5 days for Vero, CEM, and PBM cells, respectively in a humidified 5% CO2-air at 37° C. At the end of incubation, MTT tetrazolium dye solution (Cell titer 96®, Promega, Madison, Wis.) was added to each well and incubated overnight. The reaction was stopped with stop solubilization solution (Promega, Madison, Wis.). The plates were incubated for 5 hours to ensure that the formazan crystals were dissolved. The plates were read at a wavelength of 570 nm using an ELISA plate reader (Bio-tek instruments, Inc., Winooski, Vt., Model # EL 312e). […] Bookmark not defined.

A further data set concerns human PBM cells. The experiment in a line: in vitro. The class given is cell-based. On the procedure: as §1, with “Log phase Vero, CEM and PHA-stimulated human PBM cells were seeded at a density of 5×10^3, 2.5×10^3 and 5×10^4 cells/well respectively.” left out, “The cultures were incubated for 3, 4 and 5 days for Vero, CEM, and PBM cells, respectively in a humidified 5% CO2-air at 37° C.” left out

The subject of the next data set is HIV-1LAI. Briefly: HIV assay in human PBM cells (RT activity of supernatant). To be noted: 5 days, read-out: Anti-HIV-1 Activity (EC50). The class given is cell-based. The text has this: Human peripheral blood mononuclear (PBM) cells (obtained from Atlanta Red Cross) were isolated by Ficoll-Hypaque discontinuous gradient centrifugation from healthy seronegative donors. Cells were stimulated with phytohemagglutinin A (Difco, Sparks, Md.) for 2-3 days prior to use. HIV-1LAI obtained from the Centers for Disease Control and Prevention (Atlanta, Ga.) was used as the standard reference virus for the antiviral assays. The molecular infetious clones HIV-1xxBru and HIV-1M184Vpin were obtained from Dr. John Mellors (University of Pittsburgh). Infections were done in bulk for one hour, either with 100 TCID50/1×10^7 cells for a flask (T25) assay or with 200 TCID50/6×10^5 cells/well for a 24 well plate assay. Cells were added to a plate or flask containing a ten-fold serial dilution of the test compound. Assay medium was RPMI-1640 supplemented with heat inactivated 16% fetal bovine serum, 1.6 mM L-glutamine, 80 IU/ml penicillin, 80 μg/ml streptomycin, 0.0008% DEAE-Dextran, 0.045% sodium bicarbonate, and 26 IU/ml recombinant interleukin-2 (Chiron Corp, Emeryville, Calif.). AZT was used as a positive control for the assay. Untreated and uninfected PBM cells were grown in parallel at equivalent cell concentrations as controls. The cell cultures were maintained in a humidified 5% CO2-air at 37° C. for 5 days and supernatants were collected for reverse transcriptase (RT) activity.
Supernatants were centrifuged at 12,000 rpm for 2 hours to pellet the virus. The pellet was solubilized with vortexing in 100 μl virus solubilization buffer (VSB) containing 0.5% Triton X-100, 0.8 M NaCl, 0.5 mM phenylmethylsulfonyl fluoride, 20% glycerol, and 0.05 M Tris, pH 7.8. Ten μL of each sample were added to 75 μL RT reaction mixture (0.06 M Tris, pH 7.8, 0.012 M MgCl2, 0.006 M dithiothreitol, 0.006 mg/ml poly (rA)n, oligo (dT)12-18, 96 μg/ml dATP, and 1 μM of 0.08 mCi/ml ^3H-thymidine triphosphate (Moravek Biochemicals, Brea, Calif.) and incubated at 37° C. for 2 hours. The reaction was stopped by the addition of 100 μL 10% trichloroacetic acid containing 0.05% sodium pyrophosphate. The acid insoluble product was harvested onto filter paper using a Packard Harvester (Meriden, Conn.), and the RT activity was read on a Packard Direct Beta Counter (Meriden, Conn.). The RT results were expressed in counts per minute (CPM) per milliliter.

The test system of data set [2] is CEM (T-lymphoblastoid cell line). The format is cell-based. On the procedure: as §1
For data set [3], the system named is mitochondrial cytochrome C oxidase subunit II (COXII) gene. The format is cell-based, human. The following applies: HepG2, 10 μM, 7 days. An excerpt:
The Q-RT-PCR technology was also used to evaluate potential mitochondrial γ-DNA polymerase inhibition by the compounds of the present invention in relevant human cells. […] Since active nucleoside compounds in the triphosphate form lack a 3′-OH, thereby stopping virus replication by chain termination, there is a concern that these nucleoside analogues are also substrates for the human DNA polymerase γ, resulting in inhibition of mitochondrial DNA replication and subsequently toxic side effects (11, 19). In an attempt to provide direct quantifiable data on mitochondrial DNA levels intracellular, a Q-PCR technology was designed and relative quantification of COXII DNA levels were calculated using the comparative Ct method. […] Also, in agreement with previous observations, no changes in normalized mitochondrial DNA levels were observed after FIAU and D4T treatment (6, 8, 23).
Low passage number HepG2 cells, obtained from American Tissue Culture Collection (ATCC, Manassas, Va.) were seeded at 5,000 cells/well in collagen-coated 96-well plates. Test compounds were added to the media to obtain a final concentration of 10 μM. On culture day 7, cellular nucleic acids were prepared by using commercially available columns (RNeasy 96 kit, Qiagen). […] The mitochondrial cytochrome C oxidase subunit II (COXII) gene and the β-actin or rRNA gene were amplified from 5 μL with a multiplex Q-PCR protocol using the suitable primers and probes for both target and reference (designed using the Primer Express software, Applied Biosystems); • for COXII. • sense primer 5′-[…]-3′ (Sequence 7); • probe 5′-TET-[…]-TAMRA-3′ (Sequence 8); and • antisense probe 5′-[…]-3′ (Sequence 9); • for exon 3 of β-actin (GenBank E01094): • sense primer 5′-[…]-3′ (Sequence 10); • probe 5′-6FAM-[…]-TAMRA-3′ (Sequnece 11); and • antisense probe 5′-[…]-3′ (Sequence 12).
The rRNA gene primers and probes were purchased from Applied Biosystems. Standard curves using 1-log diluted total HepG2 DNA were linear over more than 5 logs. In addition, efficiencies of target (COXII DNA) and reference (β-actin DNA or rRNA) amplification were approximately equal, because the slope of the ΔCt line (Ct β-actin minus Ct mitochondrial) was less than 0.1 (not shown). Since equal amplification efficiencies were obtained for both genes, the comparative cycle threshold (Ct) method was used to investigate potential inhibition of the mitochondrial DNA polymerase γ. The comparative Ct method uses arithmetic formulas in which the amount of target (COXII gene) is normalized to an endogenous reference (β-actin gene or rRNA gene) and is relative to a calibrator (no drug control at day 7). The arithmetic formula for this approach is given by 2-ΔΔCt (User bulletin # 2, Applied Biosystems).
In order to study the consequences of possible inhibitory effects of these compounds on host DNA polymerases, nuclear and rnitochondrial DNA levels were quantified and compared to no-treatment controls. Cells were incubated for 7 days with 10 μM of each compound, followed by total nucleic acid extractions and multiplex Q-PCR of the rRNA gene and the mitochondrial COXII gene. Nucleic acids from cells exposed to the control compounds were also amplified in multiplex for mitDNA and the β-actin gene. The results are presented in Table 4 using the comparative Ct method.

The text below walks through data of patent US6949522B2, “β-2′- or 3′-halonucleosides” (Pharmasset, Inc., priority 2001, dated 2005).

pEC50, pIC50: −log10 of the molar value. Marks after values point to notes of the source that are not given here.

Broadly, the pIC50 is the negative decadic logarithm of the IC50, by convention in mol/L. Broadly, the pEC50 is the negative decadic logarithm of the EC50, by convention in mol/L. Regarding `O=c1[nH]cnc2c1ncn2[C@@H]1S[C@H](CO)C=C1F` [Compound D-28, (+)-9-[(1R,4S)-2,3-dideoxy-2,3-didehydro-2-fluoro-4-thio-β-D-ribofuranosyl]-hypoxanthine], the pIC50 (in data set [1]; with human PBM cells; in data set [2]) was below 4.00 in each case. Moreover, in the data set on HIV-1LAI, the pEC50 was 4.36.
Turning to `Nc1nc2c(ncn2[C@@H]2S[C@H](CO)C=C2F)c(=O)[nH]1` [Compound D-32, (−)-9-[(1R,4S)-2,3-dideoxy-2,3-didehydro-2-fluoro-4-thio-β-D-ribofuranosyl]-guanosine], the pIC50 (in data set [1]; in the data set with human PBM cells; in data set [2]) was below 4.00 in each case. For the same compound, in the data set on HIV-1LAI, the pEC50 is 4.09.
With `Nc1nc(F)nc2c1ncn2[C@@H]1S[C@H](CO)C=C1F` [Compound D-33, (+)-9-[(1R,4S)-2,3-dideoxy-2,3-didehydro-2-fluoro-4-thio-β-D-ribofuranosyl]-2-fluoroadenosine], the pIC50 in data set [1] is 5.12; in the data set on human PBM cells it was 5.82; in data set [2], 5.96. For the same compound, the pEC50 in the data set with HIV-1LAI is 5.92.
On the same counts, the results for `Cc1cn([C@H]2S[C@@H](CO)C=C2F)c(=O)[nH]c1=O` [Compound L-19, (+)-1-[(1S,4R)-2,3-dideoxy-2,3-didehydro-2-fluoro-4-thio-β-L-ribofuranosyl]-thymine] are below 4.00, below 4.00, below 4.00 and below 4.00.
For the compound `O=c1ccn([C@H]2S[C@@H](CO)C=C2F)c(=O)[nH]1` [Compound L-20, (+)-1-[(1S,4R)-2,3-dideoxy-2,3-didehydro-2-fluoro-4-thio-β-L-ribofuranosyl]-uracil], the pIC50 (in data set [1]; in the data set with human PBM cells; in data set [2]) was below 4.00 each time. Besides, the pEC50 with HIV-1LAI is below 4.00.
Turning to `Nc1ncnc2c1ncn2[C@H]1S[C@@H](CO)C=C1F` [Compound L-27, (−)-9-[(1S,4R)-2,3-dideoxy-2,3-didehydro-2-fluoro-4-thio-β-L-ribofuranosyl]adenine], the pIC50 (in data set [1]; in the data set on human PBM cells; in data set [2]) was below 4.00 each time. The pEC50 in the data set on HIV-1LAI is 5.77.
As to `O=c1[nH]cnc2c1ncn2[C@H]1S[C@@H](CO)C=C1F` [Compound L-28, (−)-9-[(1S,4R)-2,3-dideoxy-2,3-didehydro-2-fluoro-4-thio-β-L-ribofuranosyl]-hypoxanthine], the pIC50 (in data set [1]; in the data set on human PBM cells; in data set [2]) was below 4.00 throughout. Also, the pEC50 in the data set on HIV-1LAI was 4.81.
As for `Nc1nc2c(ncn2[C@H]2S[C@@H](CO)C=C2F)c(=O)[nH]1` [Compound L-32, (+)-9-[(1S,4R)-2,3-dideoxy-2,3-didehydro-2-fluoro-4-thio-β-L-ribofuranosyl]-guanosine], the values for the pIC50 (in data set [1]; in the data set on human PBM cells; in data set [2]) were 4.18, 4.89 and 4.98, respectively.
Take `Cc1cn([C@H]2C=C[C@@H](CO)O2)c(=O)[nH]c1=O` [D-D4T, β-D-2′,3′-didehydro-3′-deoxythymidine]: in data set [3] (COXII DNA normalized to β-actin DNA, 2-ΔΔCt), the “COXIINβ-actin DNA (range) relative to control” value is reported as 0.85 (0.79-0.88). Besides, in data set [3], the “Average ΔCt ± SD COXII DNA” value is recorded as 0.29 ± 0.01; the “Average ΔΔCt ± SD COXII-β-actin” value was found to be 0.23 ± 0.04; the “effect on (normalized) mitochondrial COXII DNA levels, in words” value is recorded as “no changes”.
Consider `Nc1ccn([C@H]2CC[C@@H](CO)O2)c(=O)n1` [D-ddC, β-D-2′,3′-dideoxycytidine], for which the “COXIINrDNA (range) relative to control” value in data set [3] (COXII DNA normalized to rDNA, 2-ΔΔCt) was 0.23 (0.15-0.37). Besides, in data set [3], the “Average ΔΔCt ± SD COXII-rDNA” value was 2.09 ± 0.65^d; the “Average ΔΔCt ± SD COXII-β-actin” value is reported as 2.9 ± 0.23^d; the “effect on (normalized) mitochondrial COXII DNA levels, in words” value is given as “reduce rnitochondrial COXII DNA levels”.
For “(−)-1-[(1S,4R)-2,3-dideoxy-2,3-didehydro-2-fluoro-4-thio-β-D-ribofuranosyl]-thymine [Compound D-19]”, the results for the pIC50 (in data set [1]; in the data set with human PBM cells; in data set [2]) were 4.28, below 4.00 and below 4.00, respectively. Also, the pEC50 in the data set with HIV-1LAI was 4.03.
On to “(−)-1-[(1S,4R)-2,3-dideoxy-2,3-didehydro-2-fluoro-4-thio-β-D-ribofuranosyl]-uracil [Compound D-20]”, for which the pIC50 (in data set [1]; in the data set on human PBM cells; in data set [2]) was below 4.00 each time. The pEC50 in the data set on HIV-1LAI was below 4.00.
